Source: patent US9066959B2, “Ficus extracts having angiogenesis inhibiting activity and methods of isolating and using the same” (BOARD OF SUPERVISORS OF LOUISIANA STATE UNIVERSITY AND …, priority 2008, dated 2015)

Columns and labels:
[1] = test system: fragments from a neuroendocrine lymph node metastasis; test: tumor fragment fibrin clot angiogenesis assay, neuroendocrine lymph node metastasis; assay type: cell-based, human; conditions: 1 mM, day 14, control compound
Protocol: (§1) Fibrin clots were prepared in 96-well plates (Corning Inc., Corning, N.Y.). Each well was preloaded with a human thrombin solution (0.05 IU/mL; in 2.0 μL/well), (Sigma Chemical Company, St Louis, Mo.). A pre-coagulation solution was prepared by dissolving fibrinogen (0.3%; Sigma) and ∈-aminocaproic acid (0.5%; Sigma) in serum-free growth medium consisting of medium 199 (Mediatech, Herndon Va.) supplemented with an antibiotic-antifungal solution (Gibco/Invitrogen, Grand Island, N.Y.; 100 Units/mL of sodium penicillin G, 100 μg/mL of streptomycin sulfate, and 25 μg of amphotericin B) and buffered to a pH of 7.6. Tumor specimens were placed in chilled serum-containing growth media (medium 199 with 20% fetal bovine serum [FBS], Gibco/Invitrogen) and kept under refrigeration until they were processed. The specimens were processed within 24 hours of surgical harvesting. Minced tumor fragments approximately 2 mm in diameter and 1 mm thick were prepared and rapidly embedded within the fibrin clots. Each tumor fragment was placed in the center of a thrombin-treated well. […] Percent initiation (% I) is a ratio calculated from the number of wells that developed an angiogenic response divided by the total number of wells prepared (×100). […] On day 14, fragments were examined microscopically and scored for an angiogenic response (angiogenic index=0-16). […]

[2] = test system: fragments from a sarcoma; test: tumor fragment fibrin clot angiogenesis assay, sarcoma; assay type: cell-based, human; conditions: 1 mM, day 14, control compound
Protocol: as §1

Compound: O=C(O)c1cc(O)c(O)c(O)c1 [Gallic Acid]
- angiogenic response (angiogenic index 0-16) [1]: total inhibition
- angiogenic response (angiogenic index 0-16) [2]: total inhibition
